# In patent US8192962B2, “Processes for detecting toxic substances” (Daikin Industries, Ltd., priority 2001, dated 2012):
# Tested on: Genes belonging to other category
# Test: DNA chip mRNA expression in yeast, genes belonging to other category (Table 9)
# Assay type: cell-based, Saccharomyces cerevisiae S288C
# In short: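 S. cerevisiae S288C grown at 25° C. in YPD to log phase, then exposed 2 h to a toxicant at a growth-inhibiting, non-lethal concentration; untreated cells as control. Poly(A) mRNA reverse-transcribed with Cy3-dUTP or Cy5-dUTP, hybridized >12 h at 65° C. to whole-genome yeast DNA chip; value = fluorescence ratio treated/untreated.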
smiles,measurement,setting,value
"CCCCCCCCCCCCc1ccc(S(=O)(=O)[O-])cc1.[Na+] [(17), sodium dodecylbenzosulfonate]",The level of expressed mRNA in the presence of chemical substance/The level of expressed mRNA in the absence of chemical substance,yeast gene YKL008C,1.4
same,The level of expressed mRNA in the presence of chemical substance/The level of expressed mRNA in the absence of chemical substance,yeast gene YKL013C,1.6
same,The level of expressed mRNA in the presence of chemical substance/The level of expressed mRNA in the absence of chemical substance,yeast gene YKL039W,1.2
same,The level of expressed mRNA in the presence of chemical substance/The level of expressed mRNA in the absence of chemical substance,yeast gene YKL096W,0.5
same,The level of expressed mRNA in the presence of chemical substance/The level of expressed mRNA in the absence of chemical substance,yeast gene YKL165C,0.9
same,The level of expressed mRNA in the presence of chemical substance/The level of expressed mRNA in the absence of chemical substance,yeast gene YKL193C,1.2
same,The level of expressed mRNA in the presence of chemical substance/The level of expressed mRNA in the absence of chemical substance,yeast gene YLR120C,3.5
same,The level of expressed mRNA in the presence of chemical substance/The level of expressed mRNA in the absence of chemical substance,yeast gene YLR136C,1.8
same,The level of expressed mRNA in the presence of chemical substance/The level of expressed mRNA in the absence of chemical substance,yeast gene YLR178C,2.0
same,The level of expressed mRNA in the presence of chemical substance/The level of expressed mRNA in the absence of chemical substance,yeast gene YLR250W,1.4
same,The level of expressed mRNA in the presence of chemical substance/The level of expressed mRNA in the absence of chemical substance,yeast gene YLR327C,3.3
same,The level of expressed mRNA in the presence of chemical substance/The level of expressed mRNA in the absence of chemical substance,yeast gene YLR356W,1.1
same,The level of expressed mRNA in the presence of chemical substance/The level of expressed mRNA in the absence of chemical substance,yeast gene YLR362W,1.2
same,The level of expressed mRNA in the presence of chemical substance/The level of expressed mRNA in the absence of chemical substance,yeast gene YLR391W,1.4
same,The level of expressed mRNA in the presence of chemical substance/The level of expressed mRNA in the absence of chemical substance,yeast gene YLR429W,1.0
same,The level of expressed mRNA in the presence of chemical substance/The level of expressed mRNA in the absence of chemical substance,yeast gene YMR004W,0.9
same,The level of expressed mRNA in the presence of chemical substance/The level of expressed mRNA in the absence of chemical substance,yeast gene YMR094W,1.0
same,The level of expressed mRNA in the presence of chemical substance/The level of expressed mRNA in the absence of chemical substance,yeast gene YMR104C,2.8
same,The level of expressed mRNA in the presence of chemical substance/The level of expressed mRNA in the absence of chemical substance,yeast gene YMR219W,1.1
same,The level of expressed mRNA in the presence of chemical substance/The level of expressed mRNA in the absence of chemical substance,yeast gene YMR226C,1.6
same,The level of expressed mRNA in the presence of chemical substance/The level of expressed mRNA in the absence of chemical substance,yeast gene YMR275C,0.9
same,The level of expressed mRNA in the presence of chemical substance/The level of expressed mRNA in the absence of chemical substance,yeast gene YMR276W,1.2
same,The level of expressed mRNA in the presence of chemical substance/The level of expressed mRNA in the absence of chemical substance,yeast gene YMR314W,1.3
same,The level of expressed mRNA in the presence of chemical substance/The level of expressed mRNA in the absence of chemical substance,yeast gene YNL006W,1.0
same,The level of expressed mRNA in the presence of chemical substance/The level of expressed mRNA in the absence of chemical substance,yeast gene YNL007C,1.1
same,The level of expressed mRNA in the presence of chemical substance/The level of expressed mRNA in the absence of chemical substance,yeast gene YNL093W,3.0
same,The level of expressed mRNA in the presence of chemical substance/The level of expressed mRNA in the absence of chemical substance,yeast gene YNL333W,1.4
same,The level of expressed mRNA in the presence of chemical substance/The level of expressed mRNA in the absence of chemical substance,yeast gene YNR010W,1.7
same,The level of expressed mRNA in the presence of chemical substance/The level of expressed mRNA in the absence of chemical substance,yeast gene YNR069C,1.1
same,The level of expressed mRNA in the presence of chemical substance/The level of expressed mRNA in the absence of chemical substance,yeast gene YOL013C,1.1
same,The level of expressed mRNA in the presence of chemical substance/The level of expressed mRNA in the absence of chemical substance,yeast gene YOL164W,1.1
same,The level of expressed mRNA in the presence of chemical substance/The level of expressed mRNA in the absence of chemical substance,yeast gene YOR036W,1.6
same,The level of expressed mRNA in the presence of chemical substance/The level of expressed mRNA in the absence of chemical substance,yeast gene YOR117W,1.4
same,The level of expressed mRNA in the presence of chemical substance/The level of expressed mRNA in the absence of chemical substance,yeast gene YOR124C,1.0
same,The level of expressed mRNA in the presence of chemical substance/The level of expressed mRNA in the absence of chemical substance,yeast gene YOR132W,1.2
same,The level of expressed mRNA in the presence of chemical substance/The level of expressed mRNA in the absence of chemical substance,yeast gene YOR157C,1.2
same,The level of expressed mRNA in the presence of chemical substance/The level of expressed mRNA in the absence of chemical substance,yeast gene YOR181W,1.1
same,The level of expressed mRNA in the presence of chemical substance/The level of expressed mRNA in the absence of chemical substance,yeast gene YOR185C,0.9
same,The level of expressed mRNA in the presence of chemical substance/The level of expressed mRNA in the absence of chemical substance,yeast gene YOR198C,1.1
same,The level of expressed mRNA in the presence of chemical substance/The level of expressed mRNA in the absence of chemical substance,yeast gene YOR259C,0.9
same,The level of expressed mRNA in the presence of chemical substance/The level of expressed mRNA in the absence of chemical substance,yeast gene YOR261C,1.0
same,The level of expressed mRNA in the presence of chemical substance/The level of expressed mRNA in the absence of chemical substance,yeast gene YOR288C,1.5
same,The level of expressed mRNA in the presence of chemical substance/The level of expressed mRNA in the absence of chemical substance,yeast gene YOR355W,0.8
same,The level of expressed mRNA in the presence of chemical substance/The level of expressed mRNA in the absence of chemical substance,yeast gene YOR383C,1.4
same,The level of expressed mRNA in the presence of chemical substance/The level of expressed mRNA in the absence of chemical substance,yeast gene YPL089C,1.5
same,The level of expressed mRNA in the presence of chemical substance/The level of expressed mRNA in the absence of chemical substance,yeast gene YPL109C,1.2
same,The level of expressed mRNA in the presence of chemical substance/The level of expressed mRNA in the absence of chemical substance,yeast gene YPL149W,2.2
same,The level of expressed mRNA in the presence of chemical substance/The level of expressed mRNA in the absence of chemical substance,yeast gene YPL154C,1.6
same,The level of expressed mRNA in the presence of chemical substance/The level of expressed mRNA in the absence of chemical substance,yeast gene YPR103W,1.2
same,The level of expressed mRNA in the presence of chemical substance/The level of expressed mRNA in the absence of chemical substance,yeast gene YPR108W,1.0
